In US10407430B2, “Janus kinase 1 selective inhibitor and pharmaceutical use thereof” (YANG JI CHEMICAL CO., LTD., priority 2015, dated 2019) one finds inhibition, JAK1/JAK2 and IC50 data, which are given here for 14 compounds.

Holding throughout (assay type): biochemical
In one test the target is T1, Human JAK1 (Homo sapiens, UniProt P23458).
T1 construct: purchased Millipore, Germany
Briefly: In-vitro kinase inhibition test, JAK1. Conditions: for inhibition at 1 µM: compound at 1 uM, read-out: JAK1 kinase-phosphorylation inhibitory level (% inhibition); for JAK1/JAK2: ratio of % inhibition of JAK1 to JAK2 at 1 uM.

Another test deals with T2, Human JAK3 (Homo sapiens, UniProt P52333).
T2 construct: purchased Millipore, Germany
T2 sequence (P52333 1-1124): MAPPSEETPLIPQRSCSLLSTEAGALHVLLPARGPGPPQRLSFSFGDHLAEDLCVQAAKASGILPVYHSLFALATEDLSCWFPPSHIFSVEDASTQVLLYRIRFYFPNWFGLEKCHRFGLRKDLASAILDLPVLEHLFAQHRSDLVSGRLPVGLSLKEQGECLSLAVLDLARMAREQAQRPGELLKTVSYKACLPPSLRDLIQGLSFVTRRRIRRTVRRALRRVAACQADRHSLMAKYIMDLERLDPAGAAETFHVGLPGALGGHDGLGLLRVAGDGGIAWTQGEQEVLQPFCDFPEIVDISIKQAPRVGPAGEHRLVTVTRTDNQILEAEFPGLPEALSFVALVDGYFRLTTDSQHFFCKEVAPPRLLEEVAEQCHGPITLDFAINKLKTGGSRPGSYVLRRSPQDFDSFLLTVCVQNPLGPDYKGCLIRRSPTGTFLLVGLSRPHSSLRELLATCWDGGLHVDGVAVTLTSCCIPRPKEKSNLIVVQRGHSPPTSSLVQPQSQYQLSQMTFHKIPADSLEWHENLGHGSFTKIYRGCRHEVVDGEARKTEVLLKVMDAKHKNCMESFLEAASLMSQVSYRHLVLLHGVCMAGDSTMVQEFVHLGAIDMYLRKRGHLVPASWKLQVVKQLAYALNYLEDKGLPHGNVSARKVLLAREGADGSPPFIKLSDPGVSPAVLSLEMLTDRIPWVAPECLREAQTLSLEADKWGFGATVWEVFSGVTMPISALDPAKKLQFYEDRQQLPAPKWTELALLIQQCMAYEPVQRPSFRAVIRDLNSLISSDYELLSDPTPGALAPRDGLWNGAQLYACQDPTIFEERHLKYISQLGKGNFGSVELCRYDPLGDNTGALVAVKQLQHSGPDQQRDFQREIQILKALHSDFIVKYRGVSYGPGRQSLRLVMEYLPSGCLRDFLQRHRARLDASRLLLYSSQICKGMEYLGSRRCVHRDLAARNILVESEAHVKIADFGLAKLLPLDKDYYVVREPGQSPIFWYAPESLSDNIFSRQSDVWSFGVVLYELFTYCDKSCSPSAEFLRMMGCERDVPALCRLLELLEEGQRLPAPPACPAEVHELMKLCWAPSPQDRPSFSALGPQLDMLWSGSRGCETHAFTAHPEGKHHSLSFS
In words: In-vitro kinase inhibition test, JAK3. Conditions: for inhibition at 1 µM: compound at 1 uM, read-out: JAK3 kinase-phosphorylation inhibitory level (% inhibition).

Another test has as its target T3, Human JAK2 (Homo sapiens, UniProt O60674).
T3 construct: purchased Millipore, Germany
Briefly: In-vitro kinase inhibition test, JAK2. Conditions: for inhibition at 1 µM: compound at 1 uM, read-out: JAK2 kinase-phosphorylation inhibitory level (% inhibition).

The target of another test is T4, Human TYK2 (Homo sapiens, UniProt P29597).
T4 construct: purchased Millipore, Germany
In words: In-vitro kinase inhibition test, TYK2. Conditions: for inhibition at 1 µM: compound at 1 uM, read-out: TYK2 kinase-phosphorylation inhibitory level (% inhibition).

Molecules are shown by their SMILES.

T3 sequence (O60674 whole entry): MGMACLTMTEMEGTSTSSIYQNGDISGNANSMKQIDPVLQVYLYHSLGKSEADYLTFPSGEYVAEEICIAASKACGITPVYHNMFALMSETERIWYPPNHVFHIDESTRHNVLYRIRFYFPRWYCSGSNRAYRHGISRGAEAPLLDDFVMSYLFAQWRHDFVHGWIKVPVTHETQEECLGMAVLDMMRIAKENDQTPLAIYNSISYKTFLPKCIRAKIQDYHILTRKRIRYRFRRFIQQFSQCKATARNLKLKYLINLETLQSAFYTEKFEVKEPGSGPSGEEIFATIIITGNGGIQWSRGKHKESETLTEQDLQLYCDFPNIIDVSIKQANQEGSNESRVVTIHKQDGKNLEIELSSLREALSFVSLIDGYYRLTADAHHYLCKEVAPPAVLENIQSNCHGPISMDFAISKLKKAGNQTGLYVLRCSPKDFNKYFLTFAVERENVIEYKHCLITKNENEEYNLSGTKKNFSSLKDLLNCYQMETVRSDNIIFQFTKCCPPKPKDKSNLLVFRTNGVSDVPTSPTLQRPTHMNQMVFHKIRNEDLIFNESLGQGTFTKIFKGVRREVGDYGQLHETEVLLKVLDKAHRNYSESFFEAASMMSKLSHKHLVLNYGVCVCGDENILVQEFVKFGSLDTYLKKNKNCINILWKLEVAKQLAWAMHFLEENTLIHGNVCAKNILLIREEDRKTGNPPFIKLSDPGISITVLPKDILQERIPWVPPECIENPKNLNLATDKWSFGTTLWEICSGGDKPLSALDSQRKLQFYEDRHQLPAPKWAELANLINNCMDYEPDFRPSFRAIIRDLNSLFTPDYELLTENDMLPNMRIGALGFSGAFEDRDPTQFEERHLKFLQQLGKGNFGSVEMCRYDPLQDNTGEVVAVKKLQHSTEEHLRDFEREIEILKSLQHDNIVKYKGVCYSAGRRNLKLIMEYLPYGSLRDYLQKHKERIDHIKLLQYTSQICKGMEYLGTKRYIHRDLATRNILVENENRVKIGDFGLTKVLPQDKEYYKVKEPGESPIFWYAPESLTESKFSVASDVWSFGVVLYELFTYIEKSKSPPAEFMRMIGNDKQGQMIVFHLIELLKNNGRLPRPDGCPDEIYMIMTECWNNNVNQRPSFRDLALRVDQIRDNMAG
T1 sequence (P23458 whole entry): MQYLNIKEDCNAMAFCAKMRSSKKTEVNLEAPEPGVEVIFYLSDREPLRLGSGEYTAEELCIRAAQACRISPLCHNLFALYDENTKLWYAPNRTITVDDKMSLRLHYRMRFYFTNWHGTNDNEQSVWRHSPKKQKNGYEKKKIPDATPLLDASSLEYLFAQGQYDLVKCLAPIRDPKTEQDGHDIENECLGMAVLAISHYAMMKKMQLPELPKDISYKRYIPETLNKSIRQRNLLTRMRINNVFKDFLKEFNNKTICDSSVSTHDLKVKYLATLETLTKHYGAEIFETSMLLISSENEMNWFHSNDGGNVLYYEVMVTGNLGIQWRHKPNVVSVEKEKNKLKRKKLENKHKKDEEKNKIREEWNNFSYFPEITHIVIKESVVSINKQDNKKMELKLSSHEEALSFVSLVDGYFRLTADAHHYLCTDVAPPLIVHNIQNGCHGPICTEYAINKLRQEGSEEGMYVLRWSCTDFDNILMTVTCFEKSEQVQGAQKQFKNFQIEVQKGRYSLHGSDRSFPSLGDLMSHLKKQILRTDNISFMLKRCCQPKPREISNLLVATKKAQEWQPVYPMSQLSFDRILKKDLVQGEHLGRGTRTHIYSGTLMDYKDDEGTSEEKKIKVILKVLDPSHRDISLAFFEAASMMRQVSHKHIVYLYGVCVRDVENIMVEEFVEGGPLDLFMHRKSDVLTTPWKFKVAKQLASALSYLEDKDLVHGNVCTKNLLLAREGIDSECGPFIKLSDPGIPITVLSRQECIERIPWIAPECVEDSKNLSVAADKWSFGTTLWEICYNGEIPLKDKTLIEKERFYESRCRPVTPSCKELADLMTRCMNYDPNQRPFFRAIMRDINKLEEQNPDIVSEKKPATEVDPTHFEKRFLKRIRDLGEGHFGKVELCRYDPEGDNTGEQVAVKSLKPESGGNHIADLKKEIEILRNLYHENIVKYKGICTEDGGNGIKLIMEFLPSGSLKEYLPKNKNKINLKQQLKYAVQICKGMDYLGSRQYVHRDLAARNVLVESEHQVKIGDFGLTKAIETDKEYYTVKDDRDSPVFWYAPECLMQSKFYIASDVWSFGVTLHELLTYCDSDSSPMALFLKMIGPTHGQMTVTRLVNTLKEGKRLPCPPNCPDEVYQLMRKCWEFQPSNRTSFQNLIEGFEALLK
T4 sequence (P29597 whole entry): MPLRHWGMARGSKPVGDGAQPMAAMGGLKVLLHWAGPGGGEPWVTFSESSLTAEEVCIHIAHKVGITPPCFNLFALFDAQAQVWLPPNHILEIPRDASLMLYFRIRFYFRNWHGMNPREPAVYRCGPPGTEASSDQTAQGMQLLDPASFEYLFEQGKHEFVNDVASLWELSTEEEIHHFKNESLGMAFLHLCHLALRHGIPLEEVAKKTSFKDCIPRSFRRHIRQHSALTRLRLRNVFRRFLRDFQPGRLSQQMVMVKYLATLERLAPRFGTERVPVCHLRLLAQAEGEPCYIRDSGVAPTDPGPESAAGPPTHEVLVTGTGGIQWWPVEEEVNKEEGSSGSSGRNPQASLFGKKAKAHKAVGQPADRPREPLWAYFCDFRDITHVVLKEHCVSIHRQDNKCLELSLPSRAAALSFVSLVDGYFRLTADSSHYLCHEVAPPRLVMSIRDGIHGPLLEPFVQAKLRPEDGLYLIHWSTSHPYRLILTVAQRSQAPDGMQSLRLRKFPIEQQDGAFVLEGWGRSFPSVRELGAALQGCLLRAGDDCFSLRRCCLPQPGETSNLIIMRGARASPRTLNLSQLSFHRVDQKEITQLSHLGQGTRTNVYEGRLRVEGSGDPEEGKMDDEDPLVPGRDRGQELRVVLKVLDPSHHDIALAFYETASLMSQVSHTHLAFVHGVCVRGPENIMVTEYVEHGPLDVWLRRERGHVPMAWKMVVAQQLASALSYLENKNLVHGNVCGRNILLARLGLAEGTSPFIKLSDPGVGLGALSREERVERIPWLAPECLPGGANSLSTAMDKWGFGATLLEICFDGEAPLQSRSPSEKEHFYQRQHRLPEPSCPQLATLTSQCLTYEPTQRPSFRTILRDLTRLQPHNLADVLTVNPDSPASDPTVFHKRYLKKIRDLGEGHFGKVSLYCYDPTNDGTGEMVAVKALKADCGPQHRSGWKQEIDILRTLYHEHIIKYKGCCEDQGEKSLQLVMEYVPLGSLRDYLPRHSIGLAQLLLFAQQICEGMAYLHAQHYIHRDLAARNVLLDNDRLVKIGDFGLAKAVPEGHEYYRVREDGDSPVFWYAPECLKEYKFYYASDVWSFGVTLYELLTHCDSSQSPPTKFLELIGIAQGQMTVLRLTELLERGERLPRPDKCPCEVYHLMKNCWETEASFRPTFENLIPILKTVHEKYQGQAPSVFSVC
Experimental for Human JAK2: Human-derived JAK1, JAK2, JAK3 and TYK2 (Millipore, Germany) were used as kinases. Each kinase was diluted with an appropriate buffer as described below, and then mixed with reaction reagents.
3-morpholinopropane-1-sulfonic acid (MOPS) and EDTA were dissolved in deionized water at a concentration of 20 mM and 1 mM, respectively, and then 100 μL of β-mercaptoethanol, 10 μL of Brij-35™, 5 mL of glycerol, and 100 mg of bovine serum albumin (BSA), each per 100 mL of the solution, were added to the solution, thereby preparing a dilution buffer for JAK2, JAK3, and TYK2.
Each compound was dissolved in a 100%-DMSO solution at a concentration of about 50 μM. This prepared solution was reacted with reaction reagents in each well of a 96-well plate until a final concentration of the compound reached 1 μM. A detailed experimental method for each kinase is as follows.
After reaction for about 40 minutes at room temperature, the reaction was stopped by adding 5 uL of a 3% (v/v) phosphoric acid solution.
The inhibitory levels (% inhibition) represent a percentage of reduction in phosphorylation activity in each test group with respect to the phosphorylation activity of a corresponding kinase in a negative control group lacking any of the compounds synthesized in the examples. % inhibition=[(Scintillation value of Test compound non-treatment group−Scintillation value of Test compound treatment group)/(Scintillation value of Test compound non-treatment group)]×100

For the compound `N#Cc1cccc(S(=O)(=O)N2CC[C@@H](N(CC3CC3)c3ncnc4[nH]ccc34)C2)c1` [Example 36, (R)-3-((3-((cyclopropylmethyl)(7H-pyrrolo[2,3-d]pyrimidine-4-yl)amino)pyrrolidine-1-yl)sulfonyl)benzonitrile], the inhibition at 1 µM on Human JAK1 was found to be 87%; at Human JAK3, 10%; at Human JAK2, 40%; at Human TYK2, 57%. Besides, the JAK1/JAK2 on Human JAK1 amounted to 2.18.
The like results for `CN(c1ncnc2[nH]ccc12)C1CCN(C(=O)CC#N)CC1` [Example 37, 3-(4-(methyl(7H-pyrrolo[2,3-d]pyrimidine-4-yl)amino)piperidine-1-yl)-3-oxopropanenitrile] were, in that order, 49%, 8%, 1%, -3% and 49.00.
Consider `CN(c1ncnc2[nH]ccc12)C1CCN(S(=O)(=O)c2ccccc2)CC1` [Example 38, N-methyl-N-(1-(phenylsulfonyl)piperidine-4-yl)-7H-pyrrolo[2,3-d]pyrimidine-4-amine], for which the IC50 against Human JAK1 is 4.2 nM; on Human JAK3, 147 nM; at Human JAK2, 19 nM; against Human TYK2, 18.8 nM. In addition, the inhibition at 1 µM is 97% on Human JAK1, 77% at Human JAK3, 94% on Human JAK2 and 97% on Human TYK2. Also, the JAK1/JAK2 at Human JAK1 was 1.03.
In the case of `CN(c1ncnc2[nH]ccc12)C1CCN(S(=O)(=O)c2cccc(C#N)c2)CC1` [Example 39, 3-((4-(methyl(7H-pyrrolo[2,3-d]pyrimidine-4-yl)amino)piperidine-1-yl)sulfonyl)benzonitrile], the inhibition at 1 µM is 87% at Human JAK1, 1% at Human JAK3, 59% at Human JAK2 and 69% on Human TYK2. Also, the JAK1/JAK2 on Human JAK1 is given as 1.47.
`CN(c1ncnc2[nH]ccc12)[C@@H]1CCCN(C(=O)CC#N)C1` [Example 40, (R)-3-(3-(methyl(7H-pyrrolo[2,3-d]pyrimidine-4-yl)amino)piperidine-1-yl)-3-oxopropanenitrile]: the inhibition at 1 µM at Human JAK1 worked out at 99%; on Human JAK3, 81%; on Human JAK2, 83%; at Human TYK2, 93%. Moreover, on Human JAK1, the JAK1/JAK2 is recorded as 1.19.
For `CN(c1ncnc2[nH]ccc12)[C@@H]1CCCN(S(=O)(=O)c2cccc(C#N)c2)C1` [Example 41, (R)-3-((3-(methyl(7H-pyrrolo[2,3-d]pyrimidine-4-yl)amino)piperidine-1-yl)sulfonyl)benzonitrile] the same measures were 92%, 39%, 64%, 79% and 1.44.
`C[C@@H]1CCN(S(=O)(=O)c2cccc(C#N)c2)C[C@@H]1N(C)c1ncnc2[nH]ccc12` [Example 42, 3-(((3R,4R)-4-methyl-3-(methyl(7H-pyrrolo[2,3-d]pyrimidine-4-yl)amino)piperidine-1-yl)sulfonyl)benzonitrile]: the inhibition at 1 µM on Human JAK1 was found to be 95%; on Human JAK3, 89%; at Human JAK2 it was 79%; at Human TYK2 it was 86%. Besides, at Human JAK1, the JAK1/JAK2 is on record as 1.20.
For `CN(c1ncnc2[nH]ccc12)[C@H]1CN(C(=O)CC#N)CC1(C)C` [Example 43, (R)-3-(3,3-dimethyl-4-(methyl(7H-pyrrolo[2,3-d]pyrimidine-4-yl)amino)pyrrolidine-1-yl)-3-oxopropanenitrile] the same measures were 86%, 36%, 19%, 38% and 4.53.
For `CN(c1ncnc2[nH]ccc12)[C@@H]1CN(C(=O)CC#N)CC1(C)C` [Example 44, (S)-3-(3,3-dimethyl-4-(methyl(7H-pyrrolo[2,3-d]pyrimidine-4-yl)amino)pyrrolidine-1-yl)-3-oxopropanenitrile] the same measures were 26%, 1%, -8%, -1% and “∞”.
For `N#CCC(=O)N1CCC(Oc2ncnc3[nH]ccc23)CC1` [Example 45, 3-(4-((7H-pyrrolo[2,3-d]pyrimidine-4-yl)oxy)piperidine-1-yl)-3-oxopropanenitrile] the same measures were 35%, 14%, 5%, 10% and 7.00.
For `N#CCC(=O)N1CCCC(COc2ncnc3[nH]ccc23)C1` (centres unmarked) [Example 47, 3-(3-(((7H-pyrrolo[2,3-d]pyrimidine-4-yl)oxy)methyl)piperidine-1-yl)-3-oxopropanenitrile], the inhibition at 1 µM on Human JAK1 turned out to be 30%; on Human JAK3, 16%; on Human JAK2 it was 10%; at Human TYK2, 20%. The JAK1/JAK2 at Human JAK1 is 3.00.
With `N#Cc1cccc(S(=O)(=O)N2CCCC(COc3ncnc4[nH]ccc34)C2)c1` (centres unmarked) [Example 48, 3-((3-(((7H-pyrrolo[2,3-d]pyrimidine-4-yl)oxy)methyl)piperidine-1-yl)sulfonyl)benzonitrile], the inhibition at 1 µM was 25% on Human JAK1, 19% on Human JAK3, 17% at Human JAK2 and 7% at Human TYK2. Besides, the JAK1/JAK2 at Human JAK1 is listed as 1.47.
As to `N#CCC(=O)N1C[C@H]2CCCN(c3ncnc4[nH]ccc34)[C@H]2C1` [Example 49, 3-((4aR,7aR)-1-(7H-pyrrolo[2,3-d]pyrimidine-4-yl)octahydro-6H-pyrrolo[3,4-b]pyridine-6-yl)-3-oxopropanenitrile], the inhibition at 1 µM on Human JAK1 is 54%; at Human JAK3 it was 1%; at Human JAK2, -7%; at Human TYK2, 21%. Also, the JAK1/JAK2 entry on Human JAK1 was “∞”.
The like results for `N#CCC(=O)N1C[C@@H]2CCCN(c3ncnc4[nH]ccc34)[C@@H]2C1` [Example 50, 3-((4aS,7aS)-1-(7H-pyrrolo[2,3-d]pyrimidine-4-yl)octahydro-6H-pyrrolo[3,4-b]pyridine-6-yl)-3-oxopropanenitrile] were, in that order, 14%, 1%, -10%, 6% and “∞”.

In general, inhibition refers to the change of the read-out against control, counted positive when it falls. Usually IC50 stands for the point on the concentration scale where inhibition reaches its midpoint.
